Source: US20250017888A1, “COMPOUNDS FOR TREATING DISEASES ASSOCIATED WITH HYALURONAN OVERPRODUCTION” (THE ROYAL VETERINARY COLLEGE, priority 2021, published 2025)
pIC50: −log10 of the molar value.

Key:
Format in all cases: cell-based
fibroblasts = experiment: Alamar blue staining of fibroblasts; conditions: Fibroblast
Description: (§1) The hyaluronan synthase activity (Prehm, P. and Schumacher, U., Biochem. Pharmacol. 2004, 68, 1401-1410), the cytotoxicity of the drugs (O'Brien, J. et al., Eur. J. Biochem. 2000, 267, 5421-5426), proteoglycan synthesis rate, hyaluronan (Prehm, P. J. Rheumatol., 2005, 32, 690-696) and proteoglycan (Bjornsson, S. Anal. Biochem. 1993, 210, 282-291) were determined as described. The effect of the prenylflavonoids on the MRP5 export rate was measured with fluorescein diacetate as described (Schulz, T., Schumacher, U., and Prehm, P., J Biol. Chem., 2007, 282, 20999-21004). The determination of the IC50 values on the phosphodiesterase 5 was performed according to the instructions of BPS Bioscience. The culture of bovine chondrocytes in alginate beads and of explants of bovine cartilage was described previously (Deiters, B. and Prehm, P. Arthritis Res. Ther., 2008, 10, R8; Prehm, P. J. Rheumatol. 2005, 32, 690-696). Osteoarthritic reactions were induced in chondrocytes growing in alginate beads by incubation with medium containing 10 ng/ml of II-17 for 6 days, and in cartilage explants with 10 ng/ml of II-17 and 5 ng/ml of II-1α. The supernatants were withdrawn and stored at −20° C. for later analysis. The explants were weighed and extracted with 1 ml of 4 M guanidinium-HCl for 72 hours at 4° C. The proteoglycan concentrations were determined in the extracts.

[1] = tested on: chondrosarcoma cells (SW1353); experiment: Alamar blue staining of chondrosarcoma; conditions: Homo sapiens
Description: as §1
Chondrosarcoma cells (SW1353 from the American Type Culture Collection) were grown in Dulbecco's medium supplemented with streptomycin/penicillin (100 units of each/ml), 10% foetal calf serum or in serum free Quantum medium supplemented with streptomycin/penicillin (100 units of each/ml), kanamycin (100 units/ml).

[2] = Alamar blue toxicity assay (FIG. 1); conditions: below concentrations of 100 μM
Description: as §1
The toxicity was determined by the Alamar blue assay.

chondrosarcoma cells = experiment: Uptake of flavonoids into chondrosarcoma cells by intracellular fluorescence
Description: Confluent monolayers of chondrosarcoma cells on 96 well microtiter plates were incubated with 100 μM solutions of flavonoids in serum-free Quantum medium. Changes in fluorescence were monitored from the bottom of the wells at excitation and emission wavelengths of 340 nm and 450 nm for xanthohumol and at 440 nm and 530 nm for quercetin, respectively.
Flavonoids are weakly fluorescent in aqueous buffer, but greatly enhance the fluorescence in the presence of proteins (Sengupta, B. and Sengupta, P. K., Biochem. Biophys. Res. Commun., 2002, 299, 400-403). This property was used to follow the uptake of quercetin and xanthohumol into chondrosarcoma cells.

[3] = tested on: hyaluronan export from chondrosarcoma cells; experiment: Inhibition of hyaluronan export / production in chondrosarcoma cells
Description: as §1
Chondrosarcoma cells were plated on a 96 well microtiter plate and in the presence of increasing flavonoid concentrations. After 2 days the concentration of hyaluronan was determined in the culture supernatant.

[4] = tested on: bovine cartilage explants; experiment: Proteoglycan loss from interleukin activated bovine cartilage explants; conditions: Bos taurus; read-out: IC50 Inhibition of proteoglycan loss
Description: Cartilage explants were weighed (average wet weight: 20 mg) incubated in the absence and presence of IL-1 (2 ng/ml) and the inhibitors at various concentrations for 5 days. The tissues were extracted with 1.5 ml of a solution of 4 M guanidinium hydrochloride, 0.1 M ε-aminohexanoid acid, 5 mM benzamidine, 10 mM N-ethylmaleinimide, 0.5 mM phenylmethylsulfonyl fluoride for 3 days at 4° C. The solution was centrifuged for 5 min at 10.000 g and the proteoglycans were determined in the supernatant by the alcian blue method as described (Bjornsson, S., Anal. Biochem., 1993, 210, 282-291).
Bovine cartilage explants were incubated in the absence and presence of interleukin for stimulation of osteoarthritic reactions and the indicated concentrations of the xanthohumol-betaine (FIG. 6A), xanthohumol-prothiazole (FIG. 6B), quercetin-prothiazole (FIG. 6C), quercetin (FIG. 6D) and xanthohumol (FIG. 6E) for 5 days. The cartilage explants were weighed and the proteoglycan concentrations were determined in the cartilage explants (solid bars) and culture supernatants (open bars).

bovine cartilage slices = experiment: Collagen loss from cartilage explants (van Gieson staining); conditions: Il-1α, Il-1β and Il-17; 12.5 μM and 50 μM; 14 days
Description: Cartilage explants were incubated with and without a mixture of 10 ng/ml of II-1α, 10 ng/ml of II-1β and 25 ng/ml of II-17 for 14 days. The addition of the cytokines was repeated daily. The tissues were fixed with 3.7% paraformaldehyde for 24 hours, imbedded in paraffin and stained by the van Giesson method.
Cartilage explants were incubated with and without a mixture of 10 ng/ml of 11-17 and 5 ng/ml of II-1α for 14 days. The addition of the cytokines was repeated daily. The tissues were fixed with 3.7% paraformaldehyde for 24 hours, imbedded in paraffin and stained by the van Gieson method (van Gieson, 1. (1889) Laboratory notes of technical methods for the nervous system. New York Medical Journal 50, 57-60).
It is known that hyaluronan overproduction leads to collagen degradation from cartilage (Deiters, B. and Prehm, P., Arthritis Res. Ther., 2008, 10, R8; Prehm, P., J. Rheumatol., 2005, 32, 690-696). […] Therefore cartilage explants were incubated with a mixture of the osteoarthritis inducing […] II-1α, II-1β and II-17 with 12.5 μM and 50 μM of the prenylflavonoids for 14 days and collagen was stained by the van Giesson method.

In the case of COc1cc(O)c(CC=C(C)C)c(O)c1C(=O)/C=C/c1ccc(O)cc1 [Xanthohumol, reference compound], the pIC50 (fibroblasts) was 4.26, the pIC50 [1] was 4.12 and the “toxicity in Alamar blue assay” value [2] was “not toxic”. For the same compound, the “uptake into chondrosarcoma cells (intracellular fluorescence)” value (chondrosarcoma cells) was “did not accumulate inside the cells”, the pIC50 [3] was 4.72 and the pIC50 [4] was 5.59. For the same compound, the “protection of cartilage from collagen loss” value (bovine cartilage slices) was “effective at protecting the cartilage from collagen loss”.
